In test [1] the test system is PC3 (prostate). Put plainly: In vitro cytotoxic activity (MTT) assay, PC3. It is filed as cell-based. Particulars: Homo sapiens, Prostate cell; PC3 (prostate) cells, exposed for 96 hours; read-out: IC50, concentration eliciting 50% inhibition of cell proliferation. The protocol:
(§1) Compounds 1-16 were screened for their in vitro cytotoxic activity utilizing a 3-(4,5-dimethyl-thiazol-2-yl)-2,5-diphenyltetrazolium bromide (MTT) assay against selected cancer human cell lines consisting of PC3 (prostate), HCT116 (colon), A375 (melanoma), H1299 (lung), MIAPaCa-2 (pancreas), HL60 (leukemia), MCF7 (breast), MDA-MB-231 (breast) (T. Mosmann, J. Immunol. Meth., 1983, 65, 55-63). The cells were cultured at 37° C. in RMPI1640 medium supplemented with 10% fetal bovine serum, 50 IU/mL penicillin, and 50 μg/mL streptomycin in a 5% CO2 incubator. All cells were sub-cultured 3 times/week by trypsinisation. Viable cells were seeded and allowed to adhere for 12 h before a test drug was added in 96-well plates at an initial density of 1.0×10^5 cells/mL. Tumour cell lines were separately exposed to various concentrations of the tested compounds followed by incubation at a temperature of 37° C. during 96 h inside a medium of fresh RMPI 1640. Cells were subsequently incubated at 37° C. using MTT at 0.5 mg/mL during 4 h. After removal of supernatant, formazan crystals were dissolved in isopropanol and the optical density was measured at 570 nm. CX-4945 was used as a positive control.

Test [2] has as its system HCT116 (colon). Put plainly: In vitro cytotoxic activity (MTT) assay, HCT116. It is filed as cell-based. Particulars: Homo sapiens, HCT-116; HCT116 (colon) cells, exposed for 96 hours; read-out: IC50, concentration eliciting 50% inhibition of cell proliferation. The protocol:
as §1

Test [3] deals with A375 (melanoma). The test can be described thus: In vitro cytotoxic activity (MTT) assay, A375. Particulars: Homo sapiens, A-375; A375 (melanoma) cells, exposed for 96 hours; read-out: IC50, concentration eliciting 50% inhibition of cell proliferation. It is filed as cell-based. The protocol:
as §1

The subject of test [4] is H1299 (lung). Put plainly: In vitro cytotoxic activity (MTT) assay, H1299. It is filed as cell-based. The settings on record: Homo sapiens, NCI-H1299; H1299 (lung) cells, exposed for 96 hours; read-out: IC50, concentration eliciting 50% inhibition of cell proliferation. As to the method: as §1
Test [5] concerns MIAPaCa-2 (pancreas). Put plainly: In vitro cytotoxic activity (MTT) assay, MIAPaCa-2. It is filed as cell-based. The settings on record: Homo sapiens, MIA PaCa-2; MIAPaCa-2 (pancreas) cells, exposed for 96 hours; read-out: IC50, concentration eliciting 50% inhibition of cell proliferation. As to the method:
as §1

Test [6] concerns HL60 (leukemia). The test can be described thus: In vitro cytotoxic activity (MTT) assay, HL60. Particulars: Homo sapiens, HL-60; HL60 (leukemia) cells, exposed for 96 hours; read-out: IC50, concentration eliciting 50% inhibition of cell proliferation. It is filed as cell-based. As to the method:
as §1

Test [7] has as its system MCF7 (breast). The test can be described thus: In vitro cytotoxic activity (MTT) assay, MCF7. It is filed as cell-based. The settings on record: Homo sapiens; MCF7 (breast) cells, exposed for 96 hours; read-out: IC50, concentration eliciting 50% inhibition of cell proliferation. As to the method:
as §1

For test [8], the system named is MDA-MB-231 (breast). Put plainly: In vitro cytotoxic activity (MTT) assay, MDA-MB-231. It is filed as cell-based. The settings on record: Homo sapiens; MDA-MB-231 (breast) cells, exposed for 96 hours; read-out: IC50, concentration eliciting 50% inhibition of cell proliferation. The protocol:
as §1

The target in test [9] is T1, recombinant human CK2 (RRββ-holoenzyme) (Homo sapiens, UniProt P68400).
T1 construct: purchased Millipore
Put plainly: CK2 kinase assay (33P-ATP, substrate peptide RRRDDDSDDD). It is filed as biochemical. The settings on record: final ATP concentration 15 μM, 10 min at 30° C.; read-out: protein kinase CK2 IC50. The protocol:
CK2 Kinase Assay was conducted using the protocol as described in Pierre F. et al; J. Med. Chem. 2011, 54, 635-654. The tested compounds in aqueous solution were added at a volume of 10 μL to a reaction mixture comprising 10 μL of assay dilution buffer (ADB; 20 mM MOPS, pH 7.2, 25 mM β-glycerol phosphate, 5 mM EGTA, 1 mM sodium orthovanadate, and 1 mM dithiothreitol), 10 μL of substrate peptide (RRRDDDSDDD, dissolved in ADB at a concentration of 1 mM), 10 μL of recombinant human CK2 (RRββ-holoenzyme, 25 ng dissolved in ADB; Millipore). Reactions were initiated by the addition of 10 μL of ATP solution (90% 75 mMMgCl2, 75 μM ATP (final ATP concentration: 15 μM) dissolved in ADB; 10% [γ-33P] ATP (stock 1 mCi/100 μL; 3000 Ci/mmol (Perkin-Elmer) and maintained for 10 min at 30° C. The reactions were quenched with 100 μL of 0.75% phosphoric acid and then transferred to and filtered through a phosphor cellulose filter plate (Millipore). After washing each well five times with 0.75% phosphoric acid, the plate was dried under vacuum for 5 min and, following the addition of 15 μL of scintillation fluid to each well, the residual radioactivity was measured using a Wallac […] counter. The IC50 values were derived from eight concentrations of test inhibitors.

The structures appear in SMILES notation.

T1 sequence (P68400 whole entry): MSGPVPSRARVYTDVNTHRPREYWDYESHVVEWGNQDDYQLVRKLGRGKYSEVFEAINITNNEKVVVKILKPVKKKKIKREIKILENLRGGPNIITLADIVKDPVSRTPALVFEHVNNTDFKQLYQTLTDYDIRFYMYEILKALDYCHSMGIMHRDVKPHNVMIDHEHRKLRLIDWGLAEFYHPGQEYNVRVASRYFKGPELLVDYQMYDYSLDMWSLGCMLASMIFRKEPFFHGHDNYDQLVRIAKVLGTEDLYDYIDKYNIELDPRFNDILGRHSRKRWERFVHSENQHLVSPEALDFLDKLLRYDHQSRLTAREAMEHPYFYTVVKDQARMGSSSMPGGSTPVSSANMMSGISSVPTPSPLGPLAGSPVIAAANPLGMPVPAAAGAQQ
T1 sequence (P67870 whole entry partner): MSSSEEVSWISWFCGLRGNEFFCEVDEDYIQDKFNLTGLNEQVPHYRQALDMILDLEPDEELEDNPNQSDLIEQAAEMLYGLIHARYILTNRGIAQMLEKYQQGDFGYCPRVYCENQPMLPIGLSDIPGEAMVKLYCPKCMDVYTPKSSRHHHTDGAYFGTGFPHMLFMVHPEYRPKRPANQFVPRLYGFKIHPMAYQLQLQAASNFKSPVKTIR

Regarding `O=c1[nH]ccc2c1[nH]c1c3ccncc3c(Nc3cccc(Cl)c3)nc21` [Compound 1, 5-((3-chlorophenyl)amino)-9,11-dihydro-10H-pyrido[4′,3′:4,5]pyrrolo[3,2-c][2,7]naphthyridin-10-one], the IC50 amounted to 2100 nM in [1]; 1900 nM in test [2]; 3300 nM in test [3]; 1000 nM in [4]; 1700 nM in [5]; 3400 nM in [6]. The IC50 in [7] stood at 6200 nM; in test [8], 4800 nM; in test [9], 38 nM.

The values are drawn from patent US11884670B1, “Pyrido[4′,3′:4,5]pyrrolo[3,2-c][2,7]naphthyridin-10-one compounds as CK2 inhibitors” (KING FAISAL UNIVERSITY, priority 2023, dated 2024).
